From patent publication EP3504969B1, “COMPOSITION FOR CONTROLLING FUNGAL INFECTION CAUSED BYNOSEMA CERANAE” (Universidad De Chile, priority 2015, dated 2017)

Columns and labels:
[1] = tested on: Nosema ceranae; assay: Confirmation efficacy test (Marchámalo): spore reduction in infected bees, days 5, 6 and 7; assay type: in vivo, Apis mellifera; details: day 7; CD14 daily dose 4 µg/bee; fumagillin 240 µg/bee; p = 0.0001
Description: The AEselec in the previous paragraph (selected for its higher efficacy and higher yield) was assayed to confirm its activity against nosemosis using standardized tests in the Pathology Laboratory of the Centro Agrario de Marchámalo, Spain. Consequently, 3 groups of treatments were used, comprising 3 cages each and 35 bees/cage, born in laboratory, which, after a waiting period of 7 days, were infected with a load of 5 × 10^4 spores per bee. Later, a waiting period of 5 days passed to begin the application of the treatment in the ad libitum feeding. (Higes, 2007; Higes et al., 2010): • 1. Group without infection, negative control (Nl) • 2. Group infected with Nosema spp. spores, untreated positive control to which only 50% sucrose syrup with a 2% L-promoter (IST) shall be given, • 3. Group infected with Nosema spp. spores treated with peumo AE (ICT).
Spores. […] Both environmental variables were monitored through the installation of an environmental thermohygrometer. […]
Figure 6. Effectiveness of CD14 indicated as a percentage of spore reduction on days 5, 6 and 7 days of treatment at a daily dose of CD14, of 4µg/bee and 20 µg/bee of the majority of the evaluated monoterpenes. […]

[2] = tested on: Nosema ceranae; details: laboratory studies; result in words; cited from earlier work

SMILES | inhibited the growth of N. ceranae spores [1] | reducing the spore load of Nosema ceranae [2]
CO[C@@H]1[C@H](OC(=O)/C=C/C=C/C=C/C=C/C(=O)O)CC[C@]2(CO2)[C@H]1[C@@]1(C)O[C@@H]1CC=C(C)C [fumagillin] | about 80% | 
Oc1ccc(C=Cc2cc(O)cc(O)c2)cc1 [resveratrol] |  | significant effects
Cc1ccc(C(C)C)c(O)c1 [thymol] |  | significant effects
